According to US20160296722A1, “METHOD OF TREATING DEPRESSION” (Korea Bio Medical Science Institute, priority 2015, published 2016):

How the values were obtained:
ICR mice = test: Forced swimming test (FST), immobility time; format: in vivo; conditions: male ICR mice, mean±SEM
Method: Male ICR mice (3 weeks old) weighing 10-12 g were purchased from the Dae-Han Experimental Animal Center (Daejeon, Republic of Korea), and subsequently maintained at the College of Korean Medicine, Kyung Hee University. Animals were housed 5-10% in as laminar air-flow room maintained at a temperature of 22±1° C. and a relative humidity of 55±10% under a 12:12 L/D cycle light (on at 7:00 h) throughout the study. Food and water were provided ad libitum. All manipulations were carried out between 9:00 and 16:00 h and no animal was used more than once.
Mice were exposed to JDS music daily for 3 weeks. All experiments were carried out in a quite environment other sounds.
After measuring immobility times, 10 mice were allocated to each of the five study groups in an immobility time-matched manner. […] The FST was performed as the end of the 3 weeks administration period. During the 6 min FST, immobility times were measured as described by Porsolt et al. (1977). The FST apparatus consisted of two Plexiglas cylinders (height: 25 cm, diameter: 10 cm) placed side by side in a Makrolon cage filled with water at 23-25° C. […] Total duration of immobility, during the 4 min period from 2 to 6 min was recorded. […]

DA = DA level in brain after FST (DA ELISA kit); format: in vivo, mice; conditions: mouse brain after FST, 10 mg/kg orally once daily for 3 weeks, versus untreated control group, p<0.05
Method: Supernatants were collected and stored at −70° C.

BDNF = BDNF expression in brain, Western blot; format: in vivo, mice; conditions: mouse brain after FST, 10 mg/kg orally once daily for 3 weeks, versus untreated control group
Method: (§1) Immediately after the FST, mice were sacrificed, brains were rapidly removed, and frozen in liquid nitrogen. Samples were dissected and homogenized in ice-cold buffer supplemented with 0.2 mM DTT, 0.5 mM sodium vanadate, and protease inhibitors. NaCl was then added to a final concentration of 0.45 M, and homogenates were centrifuged at 15,000×g for 30 min. Supernatants were collected and stored at −70° C. Samples were subjected to Western blot analysis for ERK, phosphorylated-ERK (PERK), BDNF, and GAPDH. Supernatant samples obtained as described above were heated at 95° C. for 5min and briefly cooled on ice. After centrifugation, 50 μg aliquots were resolved by 12% SDS-polyacrylamide gel electrophoresis. Proteins were then transferred to nitrocellulose membranes, which were blocked for 2 h with phosphate-buffered saline (PBS) containing Tween-20 (PBST) containing 6% bovine serum albumin. Membranes were incubated overnight at 4° C. with primary antibodies diluted 1:500 with PBST, and washed nine times for 10 min with PBST. For protein detection, blots were incubated with secondary antibodies conjugated peroxidase (1:5000) for 2 h. Finally, protein bands were visualized using an enhanced chemiluminescence kit (GE Healthcare, Piscataway, N.J., USA) according to the manufacturer's instructions.

pERK = test: ERK phosphorylation in brain, Western blot; format: in vivo, mice; conditions: mouse brain after FST, 10 mg/kg orally once daily for 3 weeks, p<0.05
Method: as §1

SMILES: CNCCC(Oc1ccc(C(F)(F)F)cc1)c1ccccc1 (centres unmarked) [fluoxetine, Fluoxetine]
- Mean immobility time after the 3-week treatment period (ICR mice; 10 mg/kg orally once daily for 3 weeks, untreated control 199.3±11.8 s, p<0.05): 60.4 ± 14.3 s
- Mean baseline immobility time (ICR mice; baseline (0 day), before treatment): 94.2 ± 23.9 s
- DA level in brain (DA): significantly higher than in the untreated control group
- BDNF level (BDNF): significantly increased BDNF levels
- pERK level (pERK): significantly elevated pERK levels
